ChEMBL document CHEMBL1157539, “Thousands of chemical starting points for antimalarial lead identification” (Nature, 2010)
Where a name gives a salt, the structure may show the parent alone.

Tested on: Plasmodium falciparum
Assay: GSK_TCMDC: Inhibition of Plasmodium falciparum 3D7 in whole erythrocytes, using parasite LDH activity as an index of growth.
Assay type: functional, organism-based
Details: not given

Row | Compound | XC50 [nM]
1 | C=C[C@H]1CN2CC[C@H]1C[C@H]2[C@H](O)c1ccnc2ccc(OC)cc12 [QUININE HYDROCHLORIDE] | 95.2

Same assay, conditions: Plasmodium falciparum, 3D7

Row | Compound | XC50 [nM]
2 | Clc1cccc(CNC2CCN(CC3CCCCC3)CC2)c1 | 912
3 | CCNC(=O)c1cc(S(=O)(=O)N2CCN(c3ccccn3)CC2)cs1 | 866
4 | O=C(Nc1cccc(OC2CCN(Cc3ccccc3)CC2)c1)Nc1cccc([N+](=O)[O-])c1 | 783
5 | CCOC(=O)CC[C@H](NC(=O)c1ccc(NS(=O)(=O)c2ccc(-c3cnc(N)[nH]c3=O)cc2)cc1)C(=O)OCC | 174
6 | Fc1ccc2[nH]cc(CCNCc3ccc(-c4cccc(-c5nc6ccccc6[nH]5)c4)cc3)c2c1 | 174
7 | O=C(NC1CCN(Cc2ccc3c(c2)OCCO3)CC1)c1ccc(-c2cccc(Cl)c2)s1 | 1910
8 | COc1ccc2nccc([C@@H](O)CN3CCC(NCCNc4cccc(F)c4)CC3)c2c1 | 176
9 | CO/C(=C\C=C\c1cc2cc(Cl)c(Cl)cc2[nH]1)C(=O)NCCCN1CCCC[C@H]1C | 791
10 | CN1CCN(CC(=O)Nc2cccc(-c3ccc(-c4nc5cc(F)ccc5[nH]4)s3)c2)CC1 | 679
11 | O=C(NC1CC1)c1cnc(N2CCC(Cc3ccccc3)CC2)c(Cl)c1 | 672
12 | Cc1ccc2oc3cc(-c4nnn[nH]4)ccc3c(=O)c2c1 | 89.4
13 | COc1cc(OC)c(NC(=O)C2c3ccccc3C(=O)N(C)C2c2cccs2)cc1Cl (centres undefined) | 764
14 | O=C(C=Cc1ccc(Cl)c(Cl)c1)NCCCCCN1CCCC(CCCNS(=O)(=O)c2cccc(C(F)(F)F)c2)C1 (centres undefined) | 962
15 | CCCNC[C@@H](O)[C@H](Cc1ccccc1)NC(=O)c1cc(NCC)cc(N2CCCCS2(=O)=O)c1 | 224
16 | COc1ccc2nccc([C@@H](O)CN3CCC(NC(=O)C(c4cc5ccccc5o4)N4CCN(c5ccc(F)cc5)CC4)CC3)c2c1 (some centres undefined) | 197
17 | CC1(C)NC(N)=NC(=N)N1OCC1CCCCC1 | 3.2
18 | CN(C)CCCN1C(=O)c2[nH]nc(-c3ccc(Cl)cc3O)c2C1c1ccc(Cl)cc1 (centres undefined) | 758
19 | FC(F)(F)c1ccc2[nH]ccc(=NN=Cc3ccccc3)c2c1 | 1170
20 | CCN(CCCN1CCCCC1)c1cc(C)nc(Nc2ccc(C)cc2C)n1 | 351
21 | Cc1cc(NC(=O)c2ccco2)ccc1OC1CCN(Cc2ccc(C#N)cc2)CC1 | 497
22 | CC(C)(C)c1ccc(CN2CCC(CNC(=O)c3cc(-c4cccc(Cl)c4)cs3)C2)cc1 (centres undefined) | 1160
23 | CN(C)CCC(=O)c1ccccc1 | 335
24 | COc1cc2cc(C(=O)Nc3ccccc3)c(N)nc2cc1OC | 1130

Row | Compound | XC50 [nM]
25 | C=C[C@H]1CN(CCCCCCC)CC[C@H]1CCN(C)c1ccnc2ccc(OC)cc12 | 446
26 | CC(CN1CCN(C)CC1)C(=O)Nc1cccc(-c2cccc(-c3nc4cc(F)ccc4[nH]3)c2)c1 (centres undefined) | 274
27 | CCCNC(=O)C1Cc2cc(OC)c(OC)cc2C2(N1)C(=O)N(Cc1cccc(OC)c1)c1ccccc12 (centres undefined) | 863
28 | c1ccc(Oc2ccc(Nc3ccnc(Nc4ccc5cn[nH]c5c4)n3)cc2)cc1 | 733
29 | Oc1ccc(CN2CCN(CCOC(c3ccc(F)cc3)c3ccc(F)cc3)CC2)cc1Cl | 935
30 | COc1ccc(CNC2CCN(C)CC2)cc1-c1ccc(S(=O)(=O)NCc2cccnc2)s1 | 835
31 | CCCCCC(=O)N1CCOC(CCN2CCC(c3ccccc3)CC2)(c2ccc(Cl)c(Cl)c2)C1 (centres undefined) | 1120
32 | N#Cc1ccc2c(c1)CN(CCC1CCC(NC(=O)c3cc4cnccc4[nH]3)CC1)CC2 (centres undefined) | 801
33 | CCc1cn2c3c(cc(C(=O)N[C@@H](Cc4cc(F)cc(F)c4)[C@H](O)CNC4CCOCC4)cc13)N(C)S(=O)(=O)CC2 | 33.6
34 | Cc1ccc(NC(=O)c2ccc(N3CCC(c4ccccc4C)CC3)nc2)cc1 | 1400
35 | NCc1cccc(-c2cccc(CNC3CCN(Cc4ccccc4)CC3)c2)c1 | 719
36 | Cc1cccc(NC(c2cccs2)c2c(NC(=O)c3ccccc3)sc(C)c2C)n1 (centres undefined) | 832
37 | O=C(Nc1ccc(-c2cccc(-c3nc4cc(C(F)(F)F)ccc4[nH]3)c2)cc1)Nc1ccc(Cl)c(Cl)c1 | 746
38 | Cc1nnsc1C(=O)Nc1cccc(-c2cccc(-c3nc4cccc(C)c4[nH]3)c2)c1 | 267
39 | COc1ccc(-c2cc(C(=O)Nc3ccc4[nH]c(-c5ccccc5)nc4c3)[nH]n2)cc1 | 696
40 | O=C(Nc1cccc(CN2CCCN(Cc3ccc4c(c3)OCO4)CC2)c1)c1ccc(Cl)c(Cl)c1 | 893
41 | Cn1nc(-c2ccc(NC(=O)Nc3cc(C(F)(F)F)ccc3F)cc2)c2cnc(NCCCCN3CCCC3)nc21 | 531
42 | Cc1ccc(NC(=O)NC2CCN(CCCCCNC(=O)/C=C/c3ccc(Cl)c(Cl)c3)CC2)cc1 | 694
43 | C[C@@H](Oc1cc(-n2cnc3ccc(OCC4CCN(S(C)(=O)=O)CC4)cc32)sc1C(N)=O)c1ccccc1C(F)(F)F | 1020
44 | O=C(NCCNc1ccnc(Nc2ccc(F)cc2)n1)Nc1ccccc1F | 762
45 | O=C(Nc1ccc(S(=O)(=O)N2CCCCC2)cc1)c1cc(-c2ccccc2O)n[nH]1 | 846
46 | Fc1ccc2[nH]c(-c3cccc(-c4ccc(CN5CCC(CCN6CCCCC6)CC5)cc4)c3)nc2c1 | 142
47 | COc1ccc(Nc2nc(NN=Cc3cc(Br)c(O)cc3O)nc(Nc3ccc([N+](=O)[O-])cc3)n2)cc1 | 896

Row | Compound | XC50 [nM]
48 | CCCCCCCN1CCC(NC(=O)Nc2ccnc3ccc(OC)cc23)C(CO)C1 (centres undefined) | 176
49 | O=C(c1ccc([N+](=O)[O-])o1)N1CCN(c2nc3c(Cl)cccc3s2)CC1 | 980
50 | COc1cc(Br)c(NC(=O)Nc2ccc(C(F)(F)F)c(O[C@@H]3CCN(C)C3)c2)cc1OC | 626
51 | CCN(CC)CCCN1CCN(C(=O)c2cccc(-c3noc(C(F)(F)F)n3)c2)CC1 | 154
52 | COc1ccc(-c2nc3cccnc3n2CC(=O)Nc2c(C)cc(C)cc2C)c(OC)c1 | 927
53 | Cc1oc(-c2cccc(Oc3ccccc3)c2)nc1CN(Cc1cnn(C)c1)C(C)C | 1090
54 | CC(C)(C)c1nn(-c2ccccc2)c2[nH]c(=O)c(CNC3CCCC3)cc12 | 850
55 | COc1cc(C=C(C2=NC(=O)CS2)c2nc3cccnc3n2C)ccc1O | 1000
56 | Cc1nc2ccc(NC(=O)Nc3ccnc4ccc(C(F)(F)F)cc34)cc2o1 | 912
57 | CCc1cn2c3c(cc(C(=O)N[C@@H](Cc4cccc(F)c4)[C@H](O)CNC4CC4)cc13)N(C)S(=O)(=O)CC2 | 143
58 | COc1ccc(NC(=O)/C=C/c2cc(F)cc(C(F)(F)F)c2)cc1OCCN(C(C)C)C(C)C | 669
59 | Oc1ccc(Br)cc1C(O)CNCc1ccccc1OCc1ccccc1 (centres undefined) | 167
60 | CC(Cc1ccc(-c2nc3ccccc3[nH]2)cc1)NCC(O)c1cccc(C(F)(F)F)c1 (centres undefined) | 352
61 | O=S(=O)(c1ccc2cc[nH]c2c1)N1CCC[C@@H]1CCN1CCC(c2c[nH]c3cnccc23)CC1 | 1020
62 | CCc1ccc(NC(=O)c2ccc(CN3CCCN(CCC(C)C)CC3)cc2)cc1 | 632
63 | CNCCCNCc1ccc(-c2ccc(F)c(Cl)c2)o1 | 752
64 | COc1cc2c(cc1OC)CN(CCc1ccc(NC(=O)c3cc4cc(Cl)ccc4[nH]3)cc1)CC2 | 1020
65 | O=C(/C=C/c1ccc(Cl)c(Cl)c1)NC1CCC(CN2CCC(Cc3c[nH]c4ccccc34)CC2)CC1 (centres undefined) | 888
66 | CS(=O)(=O)Nc1ccc2[nH]cc(C3CCN(CC4CCN(C(=O)/C=C/c5ccc(Cl)c(Cl)c5)CC4)CC3)c2c1 | 716
67 | Cc1nnc2c(NC(=O)NC3CCCC3)cc3cc(-c4ccc(CN(C)C)cc4)ccc3n12 | 1470
68 | C=C[C@H]1CN2CC[C@H]1C[C@H]2[C@H](O)c1ccnc2ccc(OC)cc12 [QUININE HYDROCHLORIDE] | 145
69 | Cn1nccc1C(=O)NCCNCc1ccc(-c2cccc(-c3nc4cc(C(F)(F)F)ccc4[nH]3)c2)cc1 | 117
